Converted amounts (≈) assume the structure as drawn.
Experiments:
Format in all cases: cell-based
[1] = test system: E. coli (ATCC 25922); assay: Minimal Inhibitory Concentration (MIC) assay; settings: Escherichia coli, ATCC25922; CAMHB, 20 hours at 35° C.; read-out: MIC (μg/mL) E. coli ATCC 25922
Protocol: The in vitro potency of compounds to inhibit E. coli (ATCC 25922) growth was assessed by MIC (Minimal Inhibitory Concentration) assay. Samples were prepared from 10 mM DMSO stock solutions. After serial 2-fold dilution in DMSO in a master plate (Greiner, Cat No: 651201), 180 μL sterile distilled water was added to 20 μL each aliquot of the samples. Then 10 μL diluted compounds were transferred into a new assay plate (Costar, 3599).
The growth medium […] Mueller Hinton Broth (CAMHB) was prepared by adding the 20 mg per liter CaCl2 and 20 mg per liter MgCl2 into the MHB medium (Jianglai Company, sterilized).
Vials of each of the test microorganisms were maintained frozen in the vapor phase of a liquid nitrogen freezer. Took out the bacteria E. coli ATCC 25922 (KWIKSTIK, 0335K) from liquid nitrogen freezer, thawed it in room temperature, and diluted the bacterial in the CAMHB medium to achieve a final inoculum of 5×10^5 CFU/mL, 90 μL CAMHB with bacteria was dispensed to the assay plate and pipetted 5 times.
Then the assay plates were incubated for 20 hours at 35° C. in ambient air. Following incubation, the MIC (μg/mL), the lowest concentration of drug that inhibits visible growth of the microorganism was read and recorded throw the microscope.

[2] = test system: E. coli (BW25113); assay: 50% growth inhibitory concentration (IC50) determination assay, E. coli; settings: Escherichia coli, BW25113; growth inhibition, Iso-Sensitest broth, OD 600 nm over 16 h; read-out: IC50 (μM) E. coli K12 BW25113
Protocol: (§1) The in vitro antimicrobial activity of the compounds against E. coli (BW25113, obtained from Coli Genetic Stock Center, #7636) and K. pneumoniae (ATCC10031) was determined according to the following procedure:
(§2) The assay used a 10-points Iso-Sensitest broth medium to measure quantitatively the in vitro activity of the compounds against E. coli BW25113 and K. pneumoniae ATCC 10031.
(§3) Stock compounds in DMSO were serially two-fold diluted (range from 50 to 0.097 μM final concentration) in 384 wells microtiter plates and inoculated with 49 μL the bacterial suspension in Iso-Sensitest broth medium to have a final cell concentration of ˜5×10^5 CFU/mL in a final volume/well of 50 μL/well. Microtiter plates were incubated at 35±2° C.
(§4) Bacterial cell growth was determined with the measurement of optical density at λ=600 nm each 20 minutes over a time course of 16 h.
(§5) Growth inhibition was calculated during the logarithmic growth of the bacterial cells with determination of the concentration inhibiting 50% (IC50) of the growth.

[3] = Cytotoxicity assay (HepG2, CellTiter-Blue); settings: human; HepG2 cells, 3 days treatment; * = detection limit
Protocol: The cytotoxicity of compounds of present invention was assessed by HepG2 assay. HepG2 cells (ATCC HB-8065™) were seeded into 96-well plates (1.2×10^4 cells per well) and treated with compounds for 3 days, cell viability was measured at day 3 post compound treatment using the CellTiter-Blue® Cell Viability Assay (Promega, Cat. No. G8082). 20 μL of Cell titer blue buffer were added to each well of the cells, incubated for 3 hours at 37° C., and the fluorescence value was measured by a plate reader (Molecular Device SpectraMax M2). The CC50 value of each compound is plotted with GraphPad Prism using four parameter logistic equation.

[4] = test system: K. pneumoniae (ATCC10031); assay: 50% growth inhibitory concentration (IC50) determination assay, K. pneumoniae; settings: Klebsiella pneumoniae, ATCC10031; growth inhibition, Iso-Sensitest broth, OD 600 nm over 16 h; * = detection limit; read-out: IC50 (μM) K. pneumoniae ATCC10031
Protocol: as §1, §2, §3, §4, §5

SMILES	MIC [1] [µg/mL]	IC50 [2] [µM]	IC50 [4] [µM]	CC50 at 3 days [3] [nM]
CNc1cc(F)cc2c1[nH]c1ncc(-c3cncc(C#N)c3)c(-n3cc(C#N)cn3)c12 [Example 1.09, 5-[4-(4-Cyanopyrazol-1-yl)-6-fluoro-8-(methylamino)-9H-pyrido[2,3-b]indol-3-yl]pyridine-3-carbonitrile]	0.153 (≈ 0.375 µM)	0.346	≤ 0.098	14600
CNc1cc(F)cc2c1[nH]c1ncc(-c3cncc(C#N)c3)c(-n3cc(CN)c(C(F)(F)F)n3)c12 [Example 1.14, 5-[4-[4-(Aminomethyl)-3-(trifluoromethyl)pyrazol-1-yl]-6-fluoro-8-(methylamino)-9H-pyrido[2,3-b]indol-3-yl]pyridine-3-carbonitrile]				13300
CCNc1cc(F)cc2c1[nH]c1ncc(-c3cnc(OC)nc3)c(-n3ncc4c3CNC4)c12 [Example 1.21, 4-(5,6-Dihydro-4H-pyrrolo[3,4-c]pyrazol-1-yl)-N-ethyl-6-fluoro-3-(2-methoxypyrimidin-5-yl)-9H-pyrido[2,3-b]indol-8-amine]				30500
CCNc1cc(F)cc2c1[nH]c1ncc(-c3cnc(OC)nc3)c(-n3cc(CN)c(C(F)(F)F)n3)c12 [Example 1.27, 4-[4-(Aminomethyl)-3-(trifluoromethyl)pyrazol-1-yl]-N-ethyl-6-fluoro-3-(2-methoxypyrimidin-5-yl)-9H-pyrido[2,3-b]indol-8-amine]	0.417 (≈ 0.833 µM)	0.462	≤ 0.098	
CCNc1cc(F)c(F)c2c1[nH]c1ncc(-c3cncc(C#N)c3)c(-n3ccc(C(F)(F)F)n3)c12 [Example 1.28, 5-[8-(Ethylamino)-5,6-difluoro-4-[3-(trifluoromethyl)pyrazol-1-yl]-9H-pyrido[2,3-b]indol-3-yl]pyridine-3-carbonitrile]	0.7 (≈ 1.45 µM)	0.8	0.199	
CCNc1cc(F)c(F)c2c1[nH]c1ncc(-c3cnc(OC)nc3)c(-n3ccc(C(F)(F)F)n3)c12 [Example 1.29, N-Ethyl-5,6-difluoro-3-(2-methoxypyrimidin-5-yl)-4-[3-(trifluoromethyl)pyrazol-1-yl]-9H-pyrido[2,3-b]indol-8-amine]	0.354 (≈ 0.723 µM)	1.05	0.175	
CCNc1cc(F)cc2c1[nH]c1ncc(-c3cncc(C#N)c3)c(-n3nc(C(F)(F)F)c4c3CNC4)c12 [Example 1.34, 5-[8-(Ethylamino)-6-fluoro-4-[3-(trifluoromethyl)-5,6-dihydro-4H-pyrrolo[3,4-c]pyrazol-1-yl]-9H-pyrido[2,3-b]indol-3-yl]pyridine-3-carbonitrile]	0.727 (≈ 1.44 µM)	2	≤ 0.098	14100
CCNc1cc(F)cc2c1[nH]c1ncc(-c3cnc(OC)nc3)c(-n3nc(C(F)(F)F)c4c3CNC4)c12 [Example 1.35, N-Ethyl-6-fluoro-3-(2-methoxypyrimidin-5-yl)-4-[3-(trifluoromethyl)-5,6-dihydro-4H-pyrrolo[3,4-c]pyrazol-1-yl]-9H-pyrido[2,3-b]indol-8-amine]	0.601 (≈ 1.17 µM)			58000
CNc1cc(F)cc2c1[nH]c1ncc(-c3cnc(OC)nc3)c(-n3nc(C#N)c4c3CNC4)c12 [Example 1.38, 1-[6-Fluoro-3-(2-methoxypyrimidin-5-yl)-8-(methylamino)-9H-pyrido[2,3-b]indol-4-yl]-5,6-dihydro-4H-pyrrolo[3,4-c]pyrazole-3-carbonitrile]				11000
CCNc1cc(F)cc2c1[nH]c1ncc(-c3cncc(C(=O)NCCOC)c3)c(-n3ccc(C(F)(F)F)n3)c12 [Example 3.06, 5-[8-(ethylamino)-6-fluoro-4-[3-(trifluoromethyl)pyrazol-1-yl]-9H-pyrido[2,3-b]indol-3-yl]-N-(2-methoxyethyl)pyridine-3-carboxamide]	0.734 (≈ 1.36 µM)	1.45	≤ 0.098	

More lines, main results first:

MIC [1] [µg/mL]	IC50 [2] [µM]	IC50 [4] [µM]	SMILES	CC50 at 3 days [3] [nM]
0.259 (≈ 0.587 µM)	0.536	≤ 0.098	CCNc1cc(F)cc2c1[nH]c1ncc(-c3cncnc3)c(-n3ccc(C(F)(F)F)n3)c12 [Example 1.12, N-Ethyl-6-fluoro-3-pyrimidin-5-yl-4-[3-(trifluoromethyl)pyrazol-1-yl]-9H-pyrido[2,3-b]indol-8-amine]	
0.142 (≈ 0.294 µM)	0.289	≤ 0.098	CCNc1cc(F)cc2c1[nH]c1ncc(-c3cncc(C(N)=O)c3)c(-n3ccc(C(F)(F)F)n3)c12 [Example 1.15, 5-[8-(Ethylamino)-6-fluoro-4-[3-(trifluoromethyl)pyrazol-1-yl]-9H-pyrido[2,3-b]indol-3-yl]pyridine-3-carboxamide]	
0.281 (≈ 0.585 µM)	0.739	0.196	CCNc1cc(F)cc2c1[nH]c1ncc(-c3cnc4ccnn4c3)c(-n3ccc(C(F)(F)F)n3)c12 [Example 1.19, N-Ethyl-6-fluoro-3-pyrazolo[1,5-a]pyrimidin-6-yl-4-[3-(trifluoromethyl)pyrazol-1-yl]-9H-pyrido[2,3-b]indol-8-amine]	
	1.32	≤ 0.098	CCNc1cc(F)cc2c1[nH]c1ncc(-c3cncc(N)c3)c(-n3ccc(C(F)(F)F)n3)c12 [Example 1.37, 3-(5-Amino-3-pyridyl)-N-ethyl-6-fluoro-4-[3-(trifluoromethyl)pyrazol-1-yl]-9H-pyrido[2,3-b]indol-8-amine]	11100
	0.796	≤ 0.098	CCNc1cc(F)cc2c1[nH]c1ncc(-c3cncc(C(=O)NC)c3)c(-n3ccc(C(F)(F)F)n3)c12 [Example 1.43, 5-[8-(Ethylamino)-6-fluoro-4-[3-(trifluoromethyl)pyrazol-1-yl]-9H-pyrido[2,3-b]indol-3-yl]-N-methyl-pyridine-3-carboxamide]	11100
0.534 (≈ 1.17 µM)	0.422	0.098	CCNc1cc(F)cc2c1[nH]c1ncc(-c3cnc(C)nc3)c(-n3ccc(C(F)(F)F)n3)c12 [Example 1.50]	
0.284 (≈ 0.585 µM)	1.12	0.111	CCNc1cc(F)cc2c1[nH]c1ncc(-c3cnc(C(C)O)nc3)c(-n3ccc(C(F)(F)F)n3)c12 (centres unmarked) [Example 1.54, 1-[5-[8-(ethylamino)-6-fluoro-4-[3-(trifluoromethyl)pyrazol-1-yl]-9H-pyrido[2,3-b]indol-3-yl]pyrimidin-2-yl]ethanol]	12400
0.284 (≈ 0.585 µM)	0.631	≤ 0.098	CCNc1cc(F)cc2c1[nH]c1ncc(-c3cnc([C@H](C)O)nc3)c(-n3ccc(C(F)(F)F)n3)c12 [Example 1.57, (1S)-1-[5-[8-(ethylamino)-6-fluoro-4-[3-(trifluoromethyl)pyrazol-1-yl]-9H-pyrido[2,3-b]indol-3-yl]pyrimidin-2-yl]ethanol]	
0.653 (≈ 1.17 µM)			CCNc1cc(F)cc2c1[nH]c1ncc(-c3cnc(OCC(C)(C)C(=O)O)nc3)c(-n3ccc(C(F)(F)F)n3)c12 [Example 2.03, 3-[5-[8-(Ethylamino)-6-fluoro-4-[3-(trifluoromethyl)pyrazol-1-yl]-9H-pyrido[2,3-b]indol-3-yl]pyrimidin-2-yl]oxy-2,2-dimethyl-propanoic acid]	20700
	0.775	≤ 0.098	CCNc1cc(F)cc2c1[nH]c1ncc(-c3cncc(C(=O)NOC)c3)c(-n3ccc(C(F)(F)F)n3)c12 [Example 3.03, 5-[8-(Ethylamino)-6-fluoro-4-[3-(trifluoromethyl)pyrazol-1-yl]-9H-pyrido[2,3-b]indol-3-yl]-N-methoxy-pyridine-3-carboxamide]	13000
0.142 (≈ 0.293 µM)	0.204	≤ 0.098	CCNc1cc(F)cc2c1[nH]c1ncc(-c3cnc(C(N)=O)nc3)c(-n3ccc(C(F)(F)F)n3)c12 [Example 3.04, 5-[8-(Ethylamino)-6-fluoro-4-[3-(trifluoromethyl)pyrazol-1-yl]-9H-pyrido[2,3-b]indol-3-yl]pyrimidine-2-carboxamide]	20900

Reference: patent publication US20210309658A1, “ARYL COMPOUNDS FOR THE TREATMENT AND PROPHYLAXIS OF BACTERIAL INFECTION” (Hoffmann-La Roche Inc., priority 2018, published 2021)
